Target: Neuronal acetylcholine receptor subunit alpha-4 (Homo sapiens, UniProt P43681)
Sequence (P43681 whole entry): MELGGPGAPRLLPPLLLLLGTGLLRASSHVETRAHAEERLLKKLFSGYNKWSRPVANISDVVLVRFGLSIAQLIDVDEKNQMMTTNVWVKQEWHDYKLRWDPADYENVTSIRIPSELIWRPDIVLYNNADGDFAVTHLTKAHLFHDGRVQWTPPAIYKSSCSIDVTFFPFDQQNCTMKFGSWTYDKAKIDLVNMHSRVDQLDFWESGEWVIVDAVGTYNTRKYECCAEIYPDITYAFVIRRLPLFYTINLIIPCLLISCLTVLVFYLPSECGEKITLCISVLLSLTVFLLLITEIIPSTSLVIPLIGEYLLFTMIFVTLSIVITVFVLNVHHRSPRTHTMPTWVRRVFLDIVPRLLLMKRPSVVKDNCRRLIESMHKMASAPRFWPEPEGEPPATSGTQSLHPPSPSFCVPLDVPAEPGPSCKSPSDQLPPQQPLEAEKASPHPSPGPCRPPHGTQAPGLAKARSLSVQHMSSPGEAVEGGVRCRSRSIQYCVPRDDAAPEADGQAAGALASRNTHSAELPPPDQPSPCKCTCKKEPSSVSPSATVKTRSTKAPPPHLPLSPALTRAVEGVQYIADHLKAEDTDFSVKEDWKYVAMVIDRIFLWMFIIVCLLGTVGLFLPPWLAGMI

Row | SMILES | Ki
1 | C=CC[N+]12CCC34c5ccccc5N5C=C6C7CC8C9(CC[N+]8(CC=C)CC7=CCO)c7ccccc7N(C=C(C(CC31)C(=CCO)C2)C54)C69 (centres undefined) [NSC_5311001] | > 10 µM
2 | C[N+](C)(C)CCOC(N)=O [(2-Hydroxyethyl)trimethyl ammonium chloride carbamate] | 0.15 µM
3 | CC(=O)SCC[N+](C)(C)C [ATC] | 0.17 µM
4 | O=c1cccc2n1CC1CNCC2C1 (centres undefined) [CAS_485-35-8] | 0.00024 µM
5 | CC(=O)OC1CC2CCC3C(CCC4(C)C3CC([N+]3(C)CCCCC3)C4OC(C)=O)C2(C)CC1N1CCCCC1 (centres undefined) [CAS_39764] | > 10 µM
6 | CNC(=O)Oc1ccc2c(c1)C1(C)CCN(C)C1N2C (centres undefined) [1,3a,8-trimethyl-1H,2H,3H,3aH,8H,8aH-pyrrolo[2,3-b]indol-5-yl N-methylcarbamate] | > 10 µM
7 | CCN1CC2(COC(=O)c3ccccc3-n3c(O)cc(C)c3O)CCC(OC)C34C5CC6C(OC)CC(O)(C5C6OC)C(O)(C(OC)C23)C14 (centres undefined) [CAS_21019-30-7] | 2.8 µM
8 | COc1cc2c3cc1Oc1cc(ccc1O)C[C@H]1c4c(cc(OC)c(O)c4Oc4ccc(cc4)C[C@@H]3N(C)CC2)CC[N+]1(C)C [CAS_57-94-3] | 2 µM
9 | C[N+](C)(C)CCOC(=O)CCCCCCC(=O)OCC[N+](C)(C)C [NSC_123990] | 0.013 µM
10 | C[N+](C)(C)CCCCCC[N+](C)(C)C [Hexamethoniumdibromide] | > 10 µM
11 | C[N+](C)(C)CCCCCCCCCC[N+](C)(C)C [Decamethonium Iodide] | 1.3 µM
12 | C[N+](C)(C)CCOC(=O)CCC(=O)OCC[N+](C)(C)C [2,2'-[(1,4-dioxobutane-1,4-diyl)bis(oxy)]bis(N,N,N-trimethylethanaminium)] | 2.9 µM
13 | C[N+]1(C)CCN(c2ccccc2)CC1 [DMPP] | 0.02 µM
14 | CC(=O)OC1CC2CCC3C(CCC4(C)C3CC([N+]3(C)CCCCC3)C4OC(C)=O)C2(C)CC1[N+]1(C)CCCCC1 (centres undefined) [NSC_27350] | > 10 µM
